Data published in US9486491B2, “Collagen peptide composition production method, DPP-4 inhibitor, and antihyperglycemic agent” (Nippi, Incorporated, priority 2012, dated 2016).
In brackets after ≈: the same amount, converted by molar mass. Non-standard residues stand in square brackets, D forms with d. Residues, ends and D or L forms follow the SMILES beside them. No end group written: not given here. Hyp = O=C(O)[C@@H]1C[C@@H](O)CN1

Target: T1, DPP-4 (derived from porcine kidney) (Sus scrofa, UniProt P22411)
T1 construct: purchased Sigma; host or cells: porcine kidney (tissue-derived enzyme)
Test: DPP-4 inhibition rate / IC50 value measurement (Gly-Pro-MCA fluorescence)
Assay type: biochemical
Conditions: individual oligopeptides
Protocol: Thirty-five μl of sample solution obtained by dissolving a sample in 50 mM tris-hydrochloric acid buffer (pH 7.5) and 15 μl of DPP-4 (manufactured by Sigma, derived from porcine kidney; 8.6 mU/ml) that was dissolved in 50 mM tris-hydrochloric acid buffer (pH 7.5) were mixed in a microtiter plate well (manufactured by NUNC, trade name “237015”) and incubated at 37° C. for 10 minutes.
To this, 50 μl of substrate solution (obtained by dissolving glycylproline-4-methylcoumarin-7-amide (Gly-Pro-MCA) in 50 mM tris-hydrochloric acid buffer (pH 7.5) at 10 μM) kept at 37° C. in advance was added and mixed to react at 37° C. for 20 minutes.
The fluorescence intensity of 7-amino-4-methylcoumarin (AMC) released by DPP-4 was measured with time using a microplate reader-type fluorescence detector (manufactured by Corona Electric Co., Ltd., trade name “SH-9000”). As for the wavelength used for the measurement, the excitation wavelength was 380 nm and the measurement wavelength was 460 nm Instead of sample, 50 mM tris-hydrochloric acid buffer (pH 7.5) in an identical amount was employed as a control and the fluorescence intensity thereof was measured.
The activity of DPP-4 was expressed in an average gradient of change in the amount of fluorescence intensity during a reaction time. As for a DPP-4 inhibition rate, difference was calculated by, with the control as 100%, subtracting the activity of sample from the above-mentioned control to use as the inhibition rate (%).
According to the above method of measuring the DPP-4 inhibition rate, a 50% inhibitory concentration (IC50 value) of the DPP-4 activity in terms of one ml of reaction system was calculated by using the inhibition rates obtained by changing the concentration of sample.

T1 sequence (P22411 whole entry): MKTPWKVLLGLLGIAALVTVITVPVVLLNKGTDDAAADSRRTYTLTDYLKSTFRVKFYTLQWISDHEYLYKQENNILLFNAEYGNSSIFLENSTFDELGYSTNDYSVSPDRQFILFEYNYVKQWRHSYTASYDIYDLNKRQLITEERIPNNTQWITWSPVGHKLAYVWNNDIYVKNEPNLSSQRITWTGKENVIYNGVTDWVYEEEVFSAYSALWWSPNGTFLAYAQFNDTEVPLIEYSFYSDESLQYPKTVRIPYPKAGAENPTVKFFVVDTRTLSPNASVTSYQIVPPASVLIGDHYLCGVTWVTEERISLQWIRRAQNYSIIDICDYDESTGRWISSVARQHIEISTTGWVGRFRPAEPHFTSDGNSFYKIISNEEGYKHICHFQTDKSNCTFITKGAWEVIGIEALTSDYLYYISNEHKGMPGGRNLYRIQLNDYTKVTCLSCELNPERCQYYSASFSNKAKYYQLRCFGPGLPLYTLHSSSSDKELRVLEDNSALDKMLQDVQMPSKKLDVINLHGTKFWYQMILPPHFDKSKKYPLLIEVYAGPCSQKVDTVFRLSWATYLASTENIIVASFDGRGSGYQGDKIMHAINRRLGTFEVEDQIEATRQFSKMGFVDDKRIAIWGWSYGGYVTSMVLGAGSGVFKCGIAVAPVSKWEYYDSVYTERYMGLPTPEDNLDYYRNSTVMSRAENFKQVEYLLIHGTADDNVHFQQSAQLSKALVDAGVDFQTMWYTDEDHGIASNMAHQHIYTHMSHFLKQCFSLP

| IC50 value | Compound |
| --- | --- |
| 150 µg/mL (≈ 498 µM) | CC[C@H](C)[C@H](N)C(=O)N1C[C@H](O)C[C@H]1C(=O)NCC(=O)O [IleHypGly] (H-Ile-[Hyp]-Gly-OH; N-terminus and C-terminus assumed) |
| 390 µg/mL (≈ 831 µM) | CC(C)C[C@H](N)C(=O)N1C[C@H](O)C[C@H]1C(=O)NCC(=O)N1CCC[C@H]1C(=O)N[C@@H](C)C(=O)O [LeuHypGlyProAla] (H-L[Hyp]GPA-OH; N-terminus and C-terminus assumed) |
| 39 µg/mL (≈ 129 µM) | CC(C)C[C@H](N)C(=O)N1C[C@H](O)C[C@H]1C(=O)NCC(=O)O [LeuHypGly] (H-Leu-[Hyp]-Gly-OH; N-terminus and C-terminus assumed) |

The remaining lines, values behind:

| Compound | IC50 value |
| --- | --- |
| C[C@H](N)C(=O)N1C[C@H](O)C[C@H]1C(=O)NCC(=O)O [AlaHypGly] (H-Ala-[Hyp]-Gly-OH; N-terminus and C-terminus assumed) | 2450 µg/mL (≈ 9450 µM) |
| GPIGPV [GlyProIleGlyProVal] | 5 µg/mL |

Test system: not listed separately
Test: Glucose tolerance test in mice, blood glucose level
Assay type: in vivo, C57BL/6J male mice
Conditions: 3 mg/kg oral one hour before glucose; 15 minutes after the administration of glucose
Protocol: (1) Twenty-five C57BL/6J male mice at an age of eight weeks (Charles River Laboratories Japan) were subjected to habituation breeding for one week. For seven days prior to a glucose tolerance test, each mouse was given 0.25 ml of distilled water to acclimate to oral administration.
(2) On the day before the glucose tolerance test, the mouse was fasted except for water for 18 hours starting at 16 o'clock. […] The five groups consist of a positive control group, collagen peptide composition administered groups (400 mg/kg, 1000 mg/kg, and 2000 mg/kg), and a negative control group.
(i) The positive control group was orally administered sitagliptin (manufactured by MSD, Januvia) at 3 mg/kg one hour before administration of 20 w/v % glucose aqueous solution.
(ii) The collagen peptide composition administered groups were orally administered the above peptide powder dissolved in distilled water to be a dose of 400 mg/kg, 1000 mg/kg, or 2000 mg/kg 15 minutes before the administration of glucose.
(iii) The negative control group was orally administered 20 ml/kg of distilled water 15 minutes before the administration of glucose.
(3) The glucose was administered. […]
(4) After the administration of glucose, the blood was drawn from the tail at 15, 30, 60, and 120 minutes; and the blood glucose level was measured using a simple blood glucose measuring instrument (manufactured by Arkray Factory, GT-164). […]

| Compound | blood glucose level |
| --- | --- |
| N[C@@H](CC(=O)N1CCn2c(nnc2C(F)(F)F)C1)Cc1cc(F)c(F)cc1F [sitagliptin] | 220 mg/dL |
